Measurements taken from US20240239790A1, “7-Morpholino-1,6-Naphthyridin-5-yl Derivatives and Pharmaceutical Compositions Thereof Useful as DNA-PK Inhibitor” (adMare Therapeutics Society, priority 2021, published 2024).
Read-outs that look alike come from different tables or passages of the source.

Columns and labels:
[1] = Microsomal Stability Assay, human liver microsomes; format: in vitro ADME; details: for microsomal CLint at 0.1 uM: both sexes, pH 7.4
Description: (§1) Samples were then mixed and centrifuged. Supernatants were used for HPLC-MS/MS analysis. […] Peak areas corresponding to the test compound were recorded.

[2] = target: T1, DNA-PK phosphorylation at Serine 2056 (Homo sapiens, UniProt P78527); test: Cellular Assay for Inhibition of DNA-PK Phosphorylation at Serine 2056 in FaDu cells (sandwich ELISA, neocarzinostatin); format: cell-based; details: pSer2056 DNA-PK
T1 construct: FaDu cells were purchased from ATCC; host or cells: FaDu
Procedure, shortened: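 FaDu cells pre-treated with compound (0.3% DMSO) for 1 h, then neocarzinostatin 1 μg/mL final added for 2 h to induce DSBs. Protein-normalised lysates read by sandwich ELISA for total and pSer2056 DNA-PK; % inhibition normalised between DMSO and NCS controls, IC50 from variable-slope log(inhibitor) fit.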

[3] = target: T2, DNA-PK (Homo sapiens, UniProt P78527); test: DNA-PK Assay for Biochemical Enzymatic Inhibition (ADP Glo Kinase assay); details: DNA-PK enzyme
T2 construct: purchased Invitrogen PR9107A
Procedure, shortened: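 Human DNA-PK (25 ng) preincubated 15 min with compounds (ten three-fold dilutions) in HEPES pH 7.5, MgCl2, KCl, calf thymus DNA buffer, then substrate 434.4 μM and ATP 64.4 μM (final) for 60 min at room temperature. ADP-Glo luminescence; percent inhibition fitted by four-parameter regression for IC50.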

[4] = Microsomal Stability Assay, mouse liver microsomes; format: in vitro ADME; details: for microsomal CLint at 0.1 uM: male, CD-1, pH 7.4
Description: as §1

[5] = system: pDNA-PK induction in HCT116 tumour spheroids; test: Multicellular tumour spheroid + radiation, pDNA-PK (ser2056) inhibition, immunohistochemical endpoint, HCT116; format: cell-based; details: Homo sapiens, 20 Gy, 20% O2
Procedure, shortened: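 HCT116 spheroids (~0.5 mm) in MEM/10% FBS, 20% O2, 37° C., pre-incubated 1 h with compound (10 or 5 μM down to 3.5 nM), irradiated 20 Gy, then 2 h further with compound. Cryosections immunostained for pDNA-PK ser2056; EC50 is concentration halving radiation-induced pDNA-PK.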

[6] = Hepatocyte Stability Assay, mouse hepatocytes; format: in vitro ADME
Description: (§2) Cryopreserved mouse hepatocytes were obtained from a pool of 10 or more male CD-1 mice. Cryopreserved human hepatocytes were obtained from a pool of 10 or more donors of mixed gender. Final hepatocyte density was 0.7 million viable cells per mL and test compound concentration was 1 uM with a maximum of 0.01% DMSO. Cryopreserved hepatocytes were thawed, washed, and resuspended in Krebs-Heinslet buffer (pH 7.3). The reaction was initiated by adding the test compound into cell suspension and incubated for 0, […], 1, 1.5, and 2 h, respectively, at 37° C./5% C02. The reaction was stopped by adding acetonitrile into the incubation mixture. Samples were then mixed, transferred completely to another 96-well plate, and centrifuged. Supernatants were used for HPLC-MS/MS analysis. […] Peak areas corresponding to the test compound were recorded.

[7] = Hepatocyte Stability Assay, human hepatocytes; format: in vitro ADME
Description: as §2

[8] = human liver microsomes 0.1 mg/mL, 0.1 uM compound
[9] = neocarzinostatin 1 μg/mL, Table 1
[10] = mouse liver microsomes 0.1 mg/mL, 0.1 uM compound
[11] = HCT-116, 2 hours following radiation, Example 9 Study 2, read-out: Spheroid Cell line: HCT116 Immunohistochemical endpoint pDNA-PK inhibition EC50
[12] = HCT-116, Spheroid, Cell Line: HCT115 (so in the source), 2 hours following radiation, Example 7, read-out: EC50, Immunohistochemical endpoint, pDNA-PK inhibition
[13] = human liver microsomes, Example 11
[14] = mouse liver microsomes, Example 11

SMILES	microsomal CLint at 0.1 uM [1, 8]	Microsomal Stability Human % rem. 60 min ([1]; human liver microsomes)	IC50 [2, 9]	IC50 ([3]; Table 1)	microsomal CLint at 0.1 uM [4, 10]	Microsomal Stability Mouse % rem. 60 min ([4]; mouse liver microsomes)	EC50 [5, 11]	EC50 [5, 12]	also measured
CN(C)C(=O)COc1ccc(N[C@H]2CC[C@@H](Oc3nc(N4CCOCC4)cc4ncccc34)CC2)nc1 [Compound 55, N,N-dimethyl-2-((6-(((1s,4s)-4-((7-morpholino-1,6-naphthyridin-5-yl)oxy)cyclohexyl)amino)pyridin-3-yl)oxy)acetamide]	> 116 µL/min/mg	F (% remaining = 25-50%)	100 to 1000 nM	< 0.5 nM	> 116 µL/min/mg	E (% remaining = 0-25%)	–	–	–
CN(C)C(=O)COc1ccnc(N[C@H]2CC[C@@H](Oc3nc(N4CCOCC4)cc4ncccc34)CC2)n1 [Compound 56, N,N-dimethyl-2-((2-(((1s,4s)-4-((7-morpholino-1,6-naphthyridin-5-yl)oxy)cyclohexyl)amino)pyrimidin-4-yl)oxy)acetamide]	> 116 µL/min/mg	E (% remaining = 0-25%)	100 to 1000 nM	< 0.5 nM	> 116 µL/min/mg	E (% remaining = 0-25%)	500 to 1000 nM	500 to 1000 nM	–
CS(=O)(=O)NCCOc1cnc(N[C@H]2CC[C@@H](Oc3nc(N4CCOCC4)cc4ncccc34)CC2)nc1 [Compound 67]	> 116 µL/min/mg	E (% remaining = 0-25%)	< 100 nM	< 0.5 nM	< 116 µL/min/mg	G (% remaining = 50-75%)	10 to 500 nM	500 to 1000 nM	–
c1cnc2cc(N3CCOCC3)nc(O[C@H]3CC[C@@H](Nc4ncc(OCCN5CCNCC5)cn4)CC3)c2c1 [Compound 70, N-((1s,4s)-4-((7-Morpholino-1,6-naphthyridin-5-yl)oxy)cyclohexyl)-5-(2-(piperazin-1-yl)ethoxy)pyrimidin-2-amine]	> 116 µL/min/mg	F (% remaining = 25-50%)	< 100 nM	< 0.5 nM	> 116 µL/min/mg	F (% remaining = 25-50%)	1000 to 10000 nM	1000 to 10000 nM	–
O=C(COc1cnc(N[C@H]2CC[C@@H](Oc3nc(N4CCOCC4)cc4ncccc34)CC2)nc1)N1CC(F)C1 [Compound 76, 1-(3-Fluoroazetidin-1-yl)-2-((2-(((1s,4s)-4-((7-morpholino-1,6-naphthyridin-5-yl)oxy)cyclohexyl)amino)pyrimidin-5-yl)oxy)ethan-1-one]	–	–	100 to 1000 nM	< 0.5 nM	–	–	1000 to 10000 nM	–	hepatocyte CLint at 1 uM ([6]; male, CD-1, cryopreserved hepatocytes, pH 7.3, mouse hepatocytes 0.7 million cells per mL, 1 uM compound): > 8.2 µL/min/1e6 cells; Hepatocyte Stability Mouse % rem. 120 min ([6]; mouse hepatocytes, 120 min): F (% remaining = 25-50%); hepatocyte CLint at 1 uM ([7]; both sexes, cryopreserved hepatocytes, pH 7.3, human hepatocytes 0.7 million cells per mL, 1 uM compound): < 8.2 µL/min/1e6 cells; Hepatocyte Stability Human % rem. 120 min ([7]; human hepatocytes, 120 min): G (% remaining = 50-75%)
CN(C)C(=O)COc1cnc(C(=O)N[C@H]2CC[C@@H](Oc3nc(N4CCOCC4)cc4ncccc34)CC2)nc1 [Compound 125]	< 116 µL/min/mg	H (% remaining = 75-100%)	100 to 1000 nM	0.5 to 1 nM	< 116 µL/min/mg	H (% remaining = 75-100%)	1000 to 10000 nM	1000 to 10000 nM	–
CONC(=O)c1cnc2cc(N3CCOCC3)nc(O[C@H]3CC[C@@H](n4ccnc4)CC3)c2c1 [Compound 171, 5-(((1s,4s)-4-(1H-imidazol-1-yl)cyclohexyl)oxy)-N-methoxy-7-morpholino-1,6-naphthyridine-3-carboxamide]	–	–	1000 to 10000 nM	1 to 10 nM	< 116 µL/min/mg	G (% remaining = 50-75%)	1000 to 10000 nM	1000 to 10000 nM	EC50 ([5]; HCT-116, 2 h, spheroids, Example 8, read-out: Cell line: HCT116 Immunohistochemical endpoint pDNA-PK inhibition EC50): 1000 to 10000 nM
O=S(=O)(Nc1cnc2cc(N3CCOCC3)nc(O[C@H]3CC[C@@H](Nc4ncccn4)CC3)c2c1)C1CC1 [Compound 186, N-(7-morpholino-5-(((1s,4s)-4-(pyrimidin-2-ylamino)cyclohexyl)oxy)-1,6-naphthyridin-3-yl)cyclopropanesulfonamide]	> 116 µL/min/mg	F (% remaining = 25-50%)	< 100 nM	0.5 to 1 nM	< 116 µL/min/mg	G (% remaining = 50-75%)	1000 to 10000 nM	1000 to 10000 nM	–
CN(C)C(=O)COc1cnc(N[C@H]2CC[C@@H](Oc3nc(N4CCOCC4)cc4ncc(NS(C)(=O)=O)cc34)CC2)nc1 [LFA012, 2-[2-[[4-[[3-(Methanesulfonamido)-7-morpholino-1,6-naphthyridin-5-yl]oxy]cyclohexyl]amino]pyrimidin-5-yl]oxy-N,N′-dimethyl-acetamide]	–	–	–	–	–	–	–	–	Microsomal Stability Human % rem. 60 min [1, 13]: H (% remaining = 75-100%); Microsomal Stability Human Clint [1, 13]: A (Clint < 116 uL/min/mg); IC50 ([2]; Table 2): 100 to 1000 nM; IC50 ([3]; Table 2): < 0.5 nM; Microsomal Stability Mouse % rem. 60 min [4, 14]: H (% remaining = 75-100%); Microsomal Stability Mouse Clint [4, 14]: A (Clint < 116 uL/min/mg)
CN(C)C(=O)COc1cnc(N[C@H]2CC[C@@H](Oc3nc(N4CCOCC4)cc4ncc(N)cc34)CC2)nc1 [LFA111, 2-[2-[[4-[(3-Amino-7-morpholino-1,6-naphthyridin-5-yl)oxy]cyclohexyl]amino]pyrimidin-5-yl]oxy-N,N-dimethyl-acetamide]	–	–	–	–	–	–	–	–	microsomal CLint at 0.1 uM [1, 13]: < 116 µL/min/mg; Microsomal Stability Human % rem. 60 min [1, 13]: G (% remaining = 50-75%); IC50 ([2]; Table 2): 100 to 1000 nM; IC50 ([3]; Table 2): 0.5 to 1 nM; microsomal CLint at 0.1 uM [4, 14]: < 116 µL/min/mg; Microsomal Stability Mouse % rem. 60 min [4, 14]: F (% remaining = 25-50%)
CN(C)C(=O)COc1cnc(N[C@H]2CC[C@@H](Oc3nc(N4CCOCC4)cc4ncc(O)cc34)CC2)nc1 [LFA113, 2-[2-[[4-[(3-Hydroxy-7-morpholino-1,6-naphthyridin-5-yl)oxy]cyclohexyl]amino]pyrimidin-5-yl]oxy-N,N-dimethyl-acetamide]	–	–	–	–	–	–	–	–	microsomal CLint at 0.1 uM [1, 13]: < 116 µL/min/mg; Microsomal Stability Human % rem. 60 min [1, 13]: H (% remaining = 75-100%); IC50 ([2]; Table 2): < 100 nM; IC50 ([3]; Table 2): < 0.5 nM; microsomal CLint at 0.1 uM [4, 14]: < 116 µL/min/mg; Microsomal Stability Mouse % rem. 60 min [4, 14]: F (% remaining = 25-50%)
